One assay deals with human recombinant BACE2 (Homo sapiens (Human), UniProt Q9Y5Z0). The assay is described as follows: In vitro enzymatic BACE2 FRET assay. The format is biochemical. Particulars: read-out: IC50 IP (μM) BACE2 enzyme. In short, it runs like this: (§1)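 Reactions were initiated by adding 50 nM of a peptide carrying fluorophore and quencher on opposite sides of the cleavage site and ran for one hour. Tris buffer then brought the pH to neutrality, ending the reaction, and fluorescence was measured (488 nm excitation, 590 nm emission).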
Sequence of human recombinant BACE2 (Q9Y5Z0 63-518): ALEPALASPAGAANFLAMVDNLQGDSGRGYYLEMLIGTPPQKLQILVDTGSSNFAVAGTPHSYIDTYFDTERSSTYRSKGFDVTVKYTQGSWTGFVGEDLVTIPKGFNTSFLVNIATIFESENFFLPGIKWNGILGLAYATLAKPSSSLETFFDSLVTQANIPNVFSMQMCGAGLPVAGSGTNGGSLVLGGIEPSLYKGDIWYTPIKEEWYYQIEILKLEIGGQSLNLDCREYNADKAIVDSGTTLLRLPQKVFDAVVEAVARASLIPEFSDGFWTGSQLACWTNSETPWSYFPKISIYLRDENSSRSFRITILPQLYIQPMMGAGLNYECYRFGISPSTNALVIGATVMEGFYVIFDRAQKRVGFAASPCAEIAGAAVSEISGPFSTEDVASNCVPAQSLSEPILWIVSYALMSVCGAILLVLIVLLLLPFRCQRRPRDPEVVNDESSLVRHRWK

The subject of assay [1] is Aβ40 in conditioned medium of cells stably expressing Amyloid Precursor Protein (APP). The assay is described as follows: In vitro BACE-1 cell-based assay (Aβ40 sandwich ELISA). Particulars: read-out: IC50 IP (μM) BACE1 cell. In short, it runs like this: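 Aβ40 in supernatants measured by time-resolved fluorescence sandwich ELISA, with pAb40 as capture and biotin-6E10 as detector antibody, each incubated at 4 °C.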
(ELISA stands for enzyme-linked immunosorbent assay.)

In another assay the target is Recombinant Cat D (Homo sapiens (Human), UniProt P07339). In words: In vitro enzymatic Cathepsin D (Cat D) FRET assay. Conditions: read-out: IC50 IP (μM) CatD. The format is biochemical. In short, it runs like this: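 Recombinant Cat D expressed in CHO cells, assayed in 0.05 M citrate pH 3.5 with 5 mM CHAPS and 10% DMSO final. Reaction started with 20 nM FRET peptide substrate, incubated one hour, then stopped by Tris buffer to neutral pH; fluorescence read at ex 500/em 580 nm.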
Sequence of Recombinant Cat D (P07339 65-412): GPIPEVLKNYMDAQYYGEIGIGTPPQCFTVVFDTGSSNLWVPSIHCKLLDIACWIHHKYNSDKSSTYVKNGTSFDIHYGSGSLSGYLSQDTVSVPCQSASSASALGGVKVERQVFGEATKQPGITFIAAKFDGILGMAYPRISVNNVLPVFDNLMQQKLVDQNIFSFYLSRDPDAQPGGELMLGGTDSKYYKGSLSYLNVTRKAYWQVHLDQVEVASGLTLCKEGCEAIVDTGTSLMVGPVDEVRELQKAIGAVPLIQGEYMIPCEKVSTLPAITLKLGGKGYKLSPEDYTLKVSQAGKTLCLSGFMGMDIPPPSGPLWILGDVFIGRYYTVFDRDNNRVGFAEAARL

The next assay concerns the target human recombinant BACE1 (Homo sapiens (Human), UniProt P56817). The assay is described as follows: In vitro enzymatic BACE1 FRET assay. The format is biochemical. Particulars: read-out: IC50 IP (μM) BACE1 enzyme. The procedure, abridged:
as §1

Bounds are passed on as bounds.

Sequence of human recombinant BACE1 (P56817 46-501): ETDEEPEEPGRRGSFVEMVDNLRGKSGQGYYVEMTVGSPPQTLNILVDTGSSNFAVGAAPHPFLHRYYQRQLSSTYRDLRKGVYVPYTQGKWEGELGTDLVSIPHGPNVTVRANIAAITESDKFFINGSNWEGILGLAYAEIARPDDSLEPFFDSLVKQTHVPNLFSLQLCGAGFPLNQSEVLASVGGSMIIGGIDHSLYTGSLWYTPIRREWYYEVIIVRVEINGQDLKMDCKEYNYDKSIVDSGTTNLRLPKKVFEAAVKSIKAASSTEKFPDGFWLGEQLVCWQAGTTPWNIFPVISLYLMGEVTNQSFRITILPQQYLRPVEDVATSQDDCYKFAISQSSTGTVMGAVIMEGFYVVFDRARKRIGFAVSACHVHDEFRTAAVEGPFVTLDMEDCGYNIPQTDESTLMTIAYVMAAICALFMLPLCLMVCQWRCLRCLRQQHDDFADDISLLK

As usually defined, the IC50 is the concentration at which inhibition is half-maximal. On to `C[C@]1(c2cc(Nc3nccc4nc(OCc5cocn5)cnc34)cc(F)c2F)N=C(N)S[C@@]2(C(F)F)C[C@@H]12` [Example 867, N-(3-((1S,5S,6S)-3-amino-1-(difluoromethyl)-5-methyl-2-thia-4-azabicyclo[4.1.0]hept-3-en-5-yl)-4,5-difluorophenyl)-2-(1,3-oxazol-4-ylmethoxy)pyrido[3,4-b]pyrazin-5-amine], for which the IC50 at human recombinant BACE2 worked out at 0.0549 µM; in assay [1], 0.011 µM; on Recombinant Cat D, 299 µM; on human recombinant BACE1, 0.00171 µM.
Taken in the same sequence, the figures for `CON(C)C(=O)[C@]12C[C@H]1[C@@](C)(c1cc(Nc3ncnc4cc(Cl)cnc34)cc(F)c1F)N=C(N)S2` [Example 901, (1S,5S,6S)-3-amino-5-(5-((7-chloropyrido[3,2-d]pyrimidin-4-yl)amino)-2,3-difluorophenyl)-N-methoxy-N,5-dimethyl-2-thia-4-azabicyclo[4.1.0]hept-3-ene-1-carboxamide] were 0.00203 µM, 0.0167 µM, 603 µM and 0.00192 µM.
For `Cc1nc(OCC(F)(F)F)cnc1C(=O)Nc1cc(F)c(F)c([C@@]2(C)N=C(N)S[C@@]3(CF)C[C@H]32)c1` [Example 614, N-(3-((1S,5S,6S)-3-amino-1-(fluoromethyl)-5-methyl-2-thia-4-azabicyclo[4.1.0]hept-3-en-5-yl)-4,5-difluorophenyl)-3-methyl-5-(2,2,2-trifluoroethoxy)-2-pyrazinecarboxamide], the IC50 was 0.101 µM on human recombinant BACE2, 0.0755 µM in assay [1], 340 µM at Recombinant Cat D and 0.00361 µM on human recombinant BACE1.
On to `C[C@]1(c2cc(Nc3nccc4nc(OCc5ncco5)cnc34)ccc2F)N=C(N)S[C@@]2(CF)C[C@H]21` [Example 825, N-(3-((1S,5S,6S)-3-amino-1-(fluoromethyl)-5-methyl-2-thia-4-azabicyclo[4.1.0]hept-3-en-5-yl)-4-fluorophenyl)-2-(1,3-oxazol-2-ylmethoxy)pyrido[3,4-b]pyrazin-5-amine], for which the IC50 was found to be 0.0542 µM on human recombinant BACE2, 0.00111 µM in assay [1], 526 µM at Recombinant Cat D and 0.00357 µM on human recombinant BACE1.
Turning to `C[C@]1(c2cc(NC(=O)c3ccc(OCC(F)(F)F)cn3)cc(F)c2F)N=C(N)S[C@@]2(C(F)F)C[C@@H]12` [Example 695, N-(3-((1S,5S,6S)-3-amino-1-(difluoromethyl)-5-methyl-2-thia-4-azabicyclo[4.1.0]hept-3-en-5-yl)-4,5-difluorophenyl)-5-(2,2,2-trifluoroethoxy)-2-pyridinecarboxamide], the IC50 on human recombinant BACE2 is 0.263 µM; in assay [1], 0.0883 µM; on Recombinant Cat D, over 400 µM; on human recombinant BACE1, 0.00272 µM.
With `CN(C)C(=O)[C@]12C[C@H]1[C@@](C)(c1cc(NC(=O)c3cnc(OCC(F)(F)F)cn3)cc(F)c1F)N=C(N)S2` [Example 926, (1S,5S,6S)-3-amino-5-(2,3-difluoro-5-(((5-(2,2,2-trifluoroethoxy)-2-pyrazinyl)carbonyl)amino)phenyl)-N,N,5-trimethyl-2-thia-4-azabicyclo[4.1.0]hept-3-ene-1-carboxamide], the 50% inhibitory concentration (IC50) at human recombinant BACE2 came to 0.00491 µM; in assay [1] it was 0.00113 µM; at Recombinant Cat D, 695 µM; at human recombinant BACE1, 0.0021 µM.
As to `C#CCOc1cnc(C(=O)Nc2cc(F)c(F)c([C@@]3(C)N=C(N)S[C@@]4(CN)C[C@H]43)c2)cn1` [Example 981, N-(3-((1S,5S,6S)-3-amino-1-(aminomethyl)-5-methyl-2-thia-4-azabicyclo[4.1.0]hept-3-en-5-yl)-4,5-difluorophenyl)-5-(prop-2-yn-1-yloxy)pyrazine-2-carboxamide], the IC50 on human recombinant BACE2 came out at 0.0575 µM; in assay [1], 0.00074 µM; on Recombinant Cat D it was 106 µM; on human recombinant BACE1 it was 0.00315 µM.

The values above are taken from patent US20160046618A1, “Cyclopropyl Fused Thiazin-2-Amine Compounds as Beta-Secretase Inhibitors and Methods of Use” (AMGEN INC., priority 2014, published 2016).
